According to article PMC6193938, “Characterization of a novel AICARFT inhibitor which potently elevates ZMP and has anti-tumor activity in murine models” (Scientific Reports, 2018):
Like-named read-outs stand apart in the source and are kept apart here.

Experiments:
HCT 116 (colon) = test: MS detection of ZMP in cultured cells; format: cell-based; details: Homo sapiens, 16 hours
Procedure: (§1) Cells lines were acquired from cell banks, see supplemental material, grown using the cell banks recommended culture conditions (Supplemental Table 3). In some experiments noted “low folate” the cells were washed and grown in folate free RPMI-1640 media (Gibco #27016-021) supplemented with 5 ml 1 M Hepes, 5 ml 100 mM Na pyruvate, 2.5 mg/ml glucose and 10% defined FBS (Hyclone #SH30070) per 500 mL media for 5–7 days to deplete intracellular folate levels prior to the start of the experiment. Where noted, cells were maintained in complete “high folate” RPMI-1640 media (ATCC #30-2001) with 10% defined FBS to contrast with the low folate conditions.
(§2) ZMP was detected in cultured cells via mass spec analysis. Cells were plated in 96-well plates at 25,000 cells per well in 100 µL with either high or low folate RPMI media and incubated overnight at 37 °C with 5% CO2. Cells were treated with inhibitor compounds for 16 hours, 0.5% DMSO final concentration. Growth media was decanted and cells were lysed for 10 min at room temperature with 50 µL per well of 1x Sure Fire Lysis buffer (Perkin Elmer, SureFire kit component). Aliquots (40 µL) of standard or sample were combined in a deep 96-well plate with 160 µL of internal standard solution containing ^13C5-ZMP (custom synthesis) and ^13C5-AICAr (custom synthesis) at 100 ng/mL in 40 mM ammonium acetate, pH 4. 400 µL of dichloromethane was added to each sample. Samples were sealed, vortexed for 5 minutes, and placed in the refrigerator for at least 30 minutes. The samples were centrifuged at 4 °C for 10 minutes at 16,600 g. 75 µL of the aqueous layer were transferred to a clean 96-well plate and seal prior to analysis.
(§3) The LC-MS method utilizes a Shimadzu Prominence 20 A HPLC system connected to an AB Sciex 5500™ or an AB Sciex 6500™ triple quadrupole mass spectrometer. Extracted samples were separated using a Thermo Hypercarb™ Javelin guard column (2.1 × 20 mm, 5 µm) with an injection volume of 15 µL and a flow rate of 1 mL/minute.
(§4) ZMP, AICAr and dUMP were detected using positive ion TurboIonSpray® multiple reaction monitoring mode and the data were processed with AB Sciex MultiQuant™. Back-calculated ZMP concentrations were fit to a four-parameter logistic equation using ACTIVITYBASE 4.0 to determine EC50 values relative to the maximum observed metabolite levels.

A101D (melenoma) = test: MS detection of ZMP in cultured cells; format: cell-based; details: Homo sapiens, low folate RPMI media, 16 hours
Procedure: as §1, §2, §3, §4

NCI-H1437 (lung) = test: MS detection of ZMP in cultured cells; format: cell-based; details: Homo sapiens, 16 hours
Procedure: as §1, §2, §3, §4

NCI-H1299 = test: MS detection of ZMP in cultured cells; format: cell-based; details: Homo sapiens, low folate RPMI media, 16 hours
Procedure: as §1, §2, §3, §4

SNU-16 (gastric) = test: MS detection of ZMP in cultured cells; format: cell-based; details: Homo sapiens, 16 hours
Procedure: as §1, §2, §3, §4

A549 (lung) = test: MS detection of ZMP in cultured cells; format: cell-based; details: Homo sapiens, 16 hours
Procedure: as §1, §2, §3, §4

MIA PaCa-2 (pancreas) = test: MS detection of ZMP in cultured cells; format: cell-based; details: Homo sapiens, 16 hours
Procedure: as §1, §2, §3, §4

NCI-H1155 (lung) = test: MS detection of ZMP in cultured cells; format: cell-based; details: Homo sapiens, 16 hours
Procedure: as §1, §2, §3, §4

SW620 (colon) = test: MS detection of ZMP in cultured cells; format: cell-based; details: Homo sapiens, 16 hours
Procedure: as §1, §2, §3, §4

NCI-H1993 (lung) = test: MS detection of ZMP in cultured cells; format: cell-based; details: Homo sapiens, low folate RPMI media, 16 hours
Procedure: as §1, §2, §3, §4

IKKb = molecular target: T1, IKKb (Homo sapiens, UniProt O14920); test: CEREP protein kinase assay; format: biochemical
T1 construct: purchased CEREP Panlabs (Eurofins)
T1 sequence (O14920 1-756): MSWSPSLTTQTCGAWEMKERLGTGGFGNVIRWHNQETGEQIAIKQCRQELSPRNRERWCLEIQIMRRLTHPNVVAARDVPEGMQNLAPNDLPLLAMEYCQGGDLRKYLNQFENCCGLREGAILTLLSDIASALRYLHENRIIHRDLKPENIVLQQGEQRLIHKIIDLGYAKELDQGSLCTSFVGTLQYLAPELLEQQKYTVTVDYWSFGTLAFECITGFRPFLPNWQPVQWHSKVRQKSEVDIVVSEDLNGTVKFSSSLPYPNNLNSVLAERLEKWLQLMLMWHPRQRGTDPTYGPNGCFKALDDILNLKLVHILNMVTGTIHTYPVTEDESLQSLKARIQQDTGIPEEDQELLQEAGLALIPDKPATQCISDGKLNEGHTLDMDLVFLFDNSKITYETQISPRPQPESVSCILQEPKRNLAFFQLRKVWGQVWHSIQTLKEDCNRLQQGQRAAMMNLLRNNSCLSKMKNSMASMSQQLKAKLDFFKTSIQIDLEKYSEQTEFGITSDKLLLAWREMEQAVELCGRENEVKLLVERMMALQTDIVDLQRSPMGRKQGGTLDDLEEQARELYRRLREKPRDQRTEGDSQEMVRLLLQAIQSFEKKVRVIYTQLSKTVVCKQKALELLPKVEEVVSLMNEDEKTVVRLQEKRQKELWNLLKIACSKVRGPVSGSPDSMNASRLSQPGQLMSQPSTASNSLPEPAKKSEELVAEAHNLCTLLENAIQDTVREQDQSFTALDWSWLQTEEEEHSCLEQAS

[1] = RPMI media, read-out: ZMP EC50 Regular folate
[2] = low folate RPMI media, read-out: ZMP EC50 Low folate

For O=c1[nH]ccc2cc(F)c(NS(=O)(=O)c3ccc(N4CC[C@@H](O)C4)s3)cc12 [LSN3213128, N-(6-Fluoro-1-oxo-1,2-dihydroisoquinolin-7-yl)-5-[(3R)-3-hydroxypyrrolidin-1-yl]thiophene-2-sulfonamide], the EC50 (HCT 116 (colon); [1]) was 369 ± 44 nM, the EC50 (HCT 116 (colon); [2]) was 2.7 ± 3.3 nM and the EC50 (A101D (melenoma)) was 2.3 nM. For the same compound, the EC50 (NCI-H1437 (lung); [1]) was 620 ± 354 nM, the EC50 (NCI-H1437 (lung); [2]) was 4.6 nM and the EC50 (NCI-H1299) was 4.1 nM. For the same compound, the EC50 (SNU-16 (gastric); [1]) was 2500 nM, the EC50 (SNU-16 (gastric); [2]) was 2 nM and the EC50 (A549 (lung); [1]) was 3100 nM. For the same compound, the EC50 (A549 (lung); [2]) was 10 nM, the EC50 (MIA PaCa-2 (pancreas); [1]) was 1700 nM and the EC50 (MIA PaCa-2 (pancreas); [2]) was 4.2 nM. It also gave an EC50 (NCI-H1155 (lung); [1]) of 380 nM, an EC50 (NCI-H1155 (lung); [2]) of 2.3 nM and an EC50 (SW620 (colon); SW-620, RPMI media, read-out: ZMP EC50 Regular folate) of 600 nM. The EC50 (SW620 (colon); SW-620, low folate RPMI media, read-out: ZMP EC50 Low folate) was 4.3 ± 0.9 nM, the EC50 (NCI-H1993 (lung)) was 7.1 nM and the inhibition at 0.2 µM (IKKb; @ 0.2 uM) was -6.4%. For the same compound, the inhibition at 2 µM (IKKb; @ 2 uM) was 0.126% and the inhibition at 20 µM (IKKb; @ 20 uM) was 4.91%.
